Test results reported in patent US10358434B2, “2-(3-pyridinyl)-1H-benzimidazole derivative compound and medicament containing same” (NIHON MEDI-PHYSICS CO., LTD., priority 2014, dated 2019).

Assays:
[1] = Plasma stability evaluation (TLC analysis); type: in vitro ADME; settings: 37° C., 60 minutes, TLC analysis
How it was run: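 Radiolabelled compounds were incubated in heparin-treated pooled normal human plasma at 37° C for 60 minutes. After methanol deproteinization and centrifugation, stability was assessed by TLC under the conditions used for each compound's synthesis.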

[2] = In vivo kinetics experiment (radioactivity distribution); design: species or system Wistar male rat; settings: rat, caudal vein
How it was run: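 Male Wistar rats (9 weeks) under isoflurane received approximately 1 to 3.7 MBq radiotracer in saline with 1 w/v % ascorbic acid by tail-vein injection. At 10, 30 and 60 min, rats were exsanguinated; blood, organs and remaining body weighed and counted, giving % ID/g and adrenal-to-tissue ratios.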

[3] = system: human adrenal gland section expressing aldosterone-producing adenoma; test: In vitro autoradiography using human adrenal adenoma; type: binding; settings: section of FIG. 17(a)
How it was run: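 Frozen 7-μm sections of human adrenal bearing aldosterone-producing adenoma were immersed 10 min in radioligand (5-33 kBq/mL) in PBS with 1% fatty-acid-free BSA, washed, then exposed to imaging plates for 16-20 h. Equal-area ROI PSL in adenoma (B2) versus normal cortex (B1) gave B2/B1, corrected for nuclide half-life, added activity and exposure time.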

## [123I]c1ccc2nc(-c3cncc(Cn4ccnc4)c3)n(C3CC3)c2c1 [[^123I] 602, 1-Cyclopropyl-2-[3-(1H-imidazol-1-ylmethyl)pyridin-5-yl]-6-[^123I]iodo-1H-benzimidazole]
[1]
  Radiochemical purity after incubation in human plasma: 82%
[2]; 10 min after administration
  Adrenal gland/blood ratio of radioactivity accumulation: 28.34 ± 5.95
  Adrenal gland/fat ratio of radioactivity accumulation: 89.23 ± 14.22
  Adrenal gland/kidney ratio of radioactivity accumulation: 5.85 ± 1.07
  Adrenal gland/liver ratio of radioactivity accumulation: 3.02 ± 0.41
  Adrenal gland/muscle ratio of radioactivity accumulation: 54.21 ± 12.64
  Adrenal gland/small intestine ratio of radioactivity accumulation: 6.95 ± 1.48
  Radioactivity distribution Adrenal gland: 9.09 ± 2.28 % ID/g
  Radioactivity distribution Bladder (including urine): 0.32 ± 0.15 % ID/g
  Radioactivity distribution Blood: 0.32 ± 0.01 % ID/g
  Radioactivity distribution Fat: 0.10 ± 0.01 % ID/g
  Radioactivity distribution Heart: 0.63 ± 0.07 % ID/g
  Radioactivity distribution Kidney: 1.54 ± 0.11 % ID/g
  Radioactivity distribution Large intestine: 0.19 ± 0.00 % ID/g
  Radioactivity distribution Liver: 2.98 ± 0.35 % ID/g
  Radioactivity distribution Lung: 1.06 ± 0.09 % ID/g
  Radioactivity distribution Muscle (lower limbs): 0.17 ± 0.00 % ID/g
  Radioactivity distribution Remaining whole body: 0.27 ± 0.01 % ID/g
  Radioactivity distribution Small intestine: 1.30 ± 0.05 % ID/g
  Radioactivity distribution Spleen: 5.26 ± 1.78 % ID/g
  Radioactivity distribution Stomach: 1.03 ± 0.28 % ID/g
  Radioactivity distribution Testis: 0.07 ± 0.02 % ID/g
  Radioactivity distribution Thyroid gland: 3.54 ± 0.37 % ID/g
  Radioactivity distribution Whole brain: 0.02 ± 0.00 % ID/g
[2]; 30 min after administration
  Adrenal gland/blood ratio of radioactivity accumulation: 40.26 ± 12.64
  Adrenal gland/fat ratio of radioactivity accumulation: 147.73 ± 74.06
  Adrenal gland/kidney ratio of radioactivity accumulation: 17.90 ± 4.66
  Adrenal gland/liver ratio of radioactivity accumulation: 13.82 ± 3.67
  Adrenal gland/muscle ratio of radioactivity accumulation: 110.91 ± 25.83
  Adrenal gland/small intestine ratio of radioactivity accumulation: 9.24 ± 1.46
  Radioactivity distribution Adrenal gland: 16.93 ± 3.32 % ID/g
  Radioactivity distribution Bladder (including urine): 1.35 ± 0.14 % ID/g
  Radioactivity distribution Blood: 0.43 ± 0.05 % ID/g
  Radioactivity distribution Fat: 0.12 ± 0.04 % ID/g
  Radioactivity distribution Heart: 0.49 ± 0.01 % ID/g
  Radioactivity distribution Kidney: 0.95 ± 0.06 % ID/g
  Radioactivity distribution Large intestine: 0.19 ± 0.00 % ID/g
  Radioactivity distribution Liver: 1.24 ± 0.09 % ID/g
  Radioactivity distribution Lung: 0.76 ± 0.04 % ID/g
  Radioactivity distribution Muscle (lower limbs): 0.15 ± 0.01 % ID/g
  Radioactivity distribution Remaining whole body: 0.31 ± 0.01 % ID/g
  Radioactivity distribution Small intestine: 1.83 ± 0.07 % ID/g
  Radioactivity distribution Spleen: 5.44 ± 1.82 % ID/g
  Radioactivity distribution Stomach: 2.24 ± 0.39 % ID/g
  Radioactivity distribution Testis: 0.12 ± 0.00 % ID/g
  Radioactivity distribution Thyroid gland: 9.97 ± 0.74 % ID/g
  Radioactivity distribution Whole brain: 0.02 ± 0.00 % ID/g
[2]; 60 min after administration
  Adrenal gland/blood ratio of radioactivity accumulation: 29.41 ± 3.13
  Adrenal gland/fat ratio of radioactivity accumulation: 105.17 ± 28.98
  Adrenal gland/kidney ratio of radioactivity accumulation: 18.87 ± 3.12
  Adrenal gland/liver ratio of radioactivity accumulation: 16.66 ± 3.13
  Adrenal gland/muscle ratio of radioactivity accumulation: 95.38 ± 22.07
  Adrenal gland/small intestine ratio of radioactivity accumulation: 6.64 ± 2.31
  Radioactivity distribution Adrenal gland: 11.65 ± 1.54 % ID/g
  Radioactivity distribution Bladder (including urine): 1.27 ± 0.07 % ID/g
  Radioactivity distribution Blood: 0.40 ± 0.01 % ID/g
  Radioactivity distribution Fat: 0.11 ± 0.02 % ID/g
  Radioactivity distribution Heart: 0.35 ± 0.03 % ID/g
  Radioactivity distribution Kidney: 0.62 ± 0.08 % ID/g
  Radioactivity distribution Large intestine: 0.43 ± 0.19 % ID/g
  Radioactivity distribution Liver: 0.70 ± 0.05 % ID/g
  Radioactivity distribution Lung: 0.60 ± 0.03 % ID/g
  Radioactivity distribution Muscle (lower limbs): 0.12 ± 0.02 % ID/g
  Radioactivity distribution Remaining whole body: 0.33 ± 0.02 % ID/g
  Radioactivity distribution Small intestine: 1.85 ± 0.44 % ID/g
  Radioactivity distribution Spleen: 5.27 ± 0.89 % ID/g
  Radioactivity distribution Stomach: 4.35 ± 0.25 % ID/g
  Radioactivity distribution Testis: 0.15 ± 0.01 % ID/g
  Radioactivity distribution Thyroid gland: 19.76 ± 1.03 % ID/g
  Radioactivity distribution Whole brain: 0.02 ± 0.00 % ID/g
[3]
  B2/B1 accumulation ratio: 2.06
[3]; site 71a
  B2 (PSL value, aldosterone-producing adenoma): 6142
[3]; site 72a
  B1 (PSL value, normal adrenal cortex): 2981
